# Measurements taken from patent US6967196B1, “Sulfonamide compounds and uses thereof” (Bristol-Myers Squibb Company, priority 1999, dated 2005).
# pIC50: −log10 of the molar value. Counter-ions that a name gives are not always drawn. Like-named read-outs stand apart in the source and are kept apart here.
# System: amyloid β production in transfected H4 (human neuroglioma) cells stably expressing APP constructs
# Test: In vitro cell-based assay of inhibitors of amyloid β production (ELISA)
# Details: transfected H4 cells stably expressing APP constructs, approximately 16 hours incubation, amyloid β in medium by ELISA, read-out: ACTIVITY (IC50, inhibition of amyloid β production)
# Outline: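 Cells expressing wild-type or variant APP were plated ≥6 h before medium was replaced with compound-containing medium (initial screen 10-100 μM) and incubated ~16 h. Secreted Aβ in medium was quantified by sandwich ELISA (C-terminal-specific mouse monoclonal capture, N-terminal rabbit polyclonal detection) against an Aβ standard curve.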
Structure (SMILES),"pIC50 (Homo sapiens, 16 h)",pIC50
"O=S(=O)(c1ccc(Cl)cc1)N(Cc1cc(Cl)ccc1C#CCCO)c1ccccc1 [Example 1089, 4-chloro-N-[5-chloro-2-(4-hydroxy-1-butynyl)benzyl]-N-phenylbenzenesulfonamide]",< 5.00,–
"O=S(=O)(c1ccc(Cl)cc1)N(Cc1ccccc1OCc1cccnc1)c1ccccc1 [Example 1091, 4-chloro-N-phenyl-N-[2-(3-pyridinylmethoxy)benzyl]benzenesulfonamide hydrochloride]",< 5.00,–
"O=S(=O)(c1ccc(Cl)cc1)N(Cc1ccccc1OCc1ccccn1)c1ccccc1 [Example 1092, 4-chloro-N-phenyl-N-[2-(2-pyridinylmethoxy)benzyl]benzenesulfonamide hydrochloride]",< 5.00,–
"CS(=O)(=O)c1ccc(N(Cc2ccccc2OCCCN2CCCCC2)S(=O)(=O)c2ccc(Cl)cc2)cc1 [Example 1094, 4-chloro-N-[4-(methylsulfonyl)phenyl]-N-{2-[3-(1-piperidinyl)propoxy]benzyl}benzenesulfonamide hydrochloride]",< 5.00,–
"O=S(=O)(c1ccc(Sc2ccccc2)cc1)N(Cc1ccccc1OCCCSc1ccccc1)c1cc(F)ccc1F [Example 1095, N-(2,5-difluorophenyl)-4-(phenylsulfanyl)-N-{2-[3-(phenylsulfanyl)propoxy]benzyl}benzenesulfonamide]",< 5.00,–
"CCOC(=O)CCCc1ccccc1CN(c1ccccc1)S(=O)(=O)c1ccccc1[N+](=O)[O-] [Example 1096, ethyl 4-[2-({[(2-ntrophenyl)sulfonyl]anilino}methyl)phenyl]butanoate]",–,< 5.00
CCCCCCCCCCCCCCCCCC(=O)N(C)CCOc1ccccc1C(C)N(c1cc(F)ccc1F)S(=O)(=O)c1ccc(Cl)cc1 (stereo not shown) [Example 1098],–,< 5.00
"C[C@H](CCC[N+](=O)[O-])N(c1cc(Cl)ccc1Cl)S(=O)(=O)c1ccc(Cl)cc1 [Example 1099, 4-chloro-N-(2,5-dichlorophenyl)-N-[4-nitro-1(R)-methylbutyl]benzenesulfonamide]",≥ 7.60,–
C[C@H](CCCNS(C)(=O)=O)N(c1cc(Cl)ccc1F)S(=O)(=O)c1ccc(Cl)cc1 [Example 1100],–,≥ 7.60
C[C@H](CCCN(C)S(C)(=O)=O)N(c1cc(Cl)ccc1F)S(=O)(=O)c1ccc(Cl)cc1 [Example 1101],–,≥ 7.60
"C[C@H](CCN1CCCCC1CS(C)(=O)=O)N(c1cc(Cl)ccc1Cl)S(=O)(=O)c1ccc(Cl)cc1 (stereo partly drawn) [Example 1102, 4-chloro-N-(2,5-dichlorophenyl)-N-[3-[2-[(methylsulfonyl)methyl]-1-piperidinyl]-1(R)-methylpropyl]benzenesulfonamide]",≥ 7.60,–
"C[C@H](CCCN1CCSC1C(=O)O)N(c1cc(Cl)ccc1Cl)S(=O)(=O)c1ccc(Cl)cc1 (stereo partly drawn) [Example 1103, 4-chloro-N-(2,5-dichlorophenyl)-N-[4-(2-carboxy-3-thiazolidinyl)-1(R)-methylbutyl]benzenesulfonamide]",≥ 7.60,–
"COC(=O)C1SCCN1CCC[C@@H](C)N(c1cc(Cl)ccc1Cl)S(=O)(=O)c1ccc(Cl)cc1 (stereo partly drawn) [Example 1105, 4-chloro-N-(2,5-dichlorophenyl)-N-[4-(2-methoxycarbonyl-3-thiazolidinyl)-1(R)-methylbutyl]benzenesulfonamide]",≥ 7.60,–
"CC(CC[C@@H](C)N(c1cc(Cl)ccc1Cl)S(=O)(=O)c1ccc(Cl)cc1)N1CCSC1C(=O)O (stereo partly drawn) [Example 1106, 4-chloro-N-(2,5-dichlorophenyl)-N-[4-(2-carboxy-3-thiazolidinyl)-1(R)-methylpentyl]benzenesulfonamide]",≥ 7.60,–
"C[C@H](CCC[N+](=O)[O-])N(c1cc(Cl)ccc1F)S(=O)(=O)c1ccc(Cl)cc1 [Example 1107, 4-chloro-N-(5-chloro-2-fluorophenyl)-N-[4-nitro-1(R)-methylbutyl]benzenesulfonamide]",≥ 7.60,–
"C[C@H](CCCN1CCCC(S(C)(=O)=O)C1)N(c1cc(Cl)ccc1Cl)S(=O)(=O)c1ccc(Cl)cc1 (stereo partly drawn) [Example 1108, 4-chloro-N-(2,5-dichlorophenyl)-N-[4-[(3-methylsulfonyl)-1-piperidinyl]-1(R)-methylbutyl]benzenesulfonamide]",–,≥ 7.60
